In patent US20230295162A1 (EÖTVÖS LORÁND TUDOMÁNYEGYETEM, priority 2020, published 2023):

Tests used:
[1] = system: PANC-1 (human pancreatic carcinoma) cells; assay: Impedance-based viability assay (xCELLigence SP), long treatment; type: cell-based; conditions: 72 h, read-out: cytotoxicity expressed in IC50, PANC-1
Description: (Gibco®/Invitrogen Corporation, New York, NY, USA).
Data obtained from each experiment represent mathematical averages.

[2] = system: EBC-1 lung cancer cell line; assay: High-throughput screening, CellTiter-Glo cell viability assay at 100 nM; type: cell-based, human; conditions: Homo sapiens, EBC-1, HTS, compounds at 100 nM, 72 h, read-out: cytotoxicity expressed in IC50, EBC-1 (results of High throughput screening)
[3] = system: H2228 lung cancer cell line; assay: as above; type: cell-based, human; conditions: Homo sapiens, NCI-H2228, HTS, compounds at 100 nM, 72 h, read-out: cytotoxicity expressed in IC50, H2228 (results of High throughput screening)
[4] = system: Capan-1 (pancreas, adenocarcinoma) cells; assay: Cell viability assay, CellTiter-Glo (Example 21); type: cell-based, human; conditions: 72 h treatment
Method in brief: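 Viability of Capan-1 pancreatic adenocarcinoma cells was assessed using Promega's CellTiter-Glo® luminescence kit. Cells were plated at 1000 cells/well in white, flat-bottom 96 well plates, treated, then luminescence was recorded on a BioTek Synergy 2 reader. Dose-response curves were fitted in GraphPad Prism 8.4.2 with a four-parameter variable-slope non-linear regression.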

[5] = system: DU 145 (prostate, carcinoma) cells; assay: Cell viability assay, CellTiter-Glo (Example 21); type: cell-based, human; conditions: 72 h
Method in brief: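 DU 145 prostate carcinoma cells were plated at 1000 cells/well in white flat-bottom 96 well plates and exposed to compound. Viability was then determined by CellTiter-Glo® luminescence on a BioTek Synergy 2 reader, and dose-response curves were fitted in GraphPad Prism 8.4.2 with a four-parameter variable-slope non-linear regression.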

[6] = system: Detroit 562 (pharynx, carcinoma) cells; assay: Cell viability assay, CellTiter-Glo (Example 21); type: cell-based, human; conditions: 72 h treatment
Method in brief: (§1)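 Cells were seeded at optimized densities (Panc-1 750, FaDu 1000, Detroit 562 and MDA-MB-453 1500 cells/well), then treated with compound. Viability was read by CellTiter-Glo luminescence. Dose-response curves were fitted by four-parameter variable-slope non-linear regression.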

[7] = system: EBC-1 (lung, squamous cell carcinoma) cells; assay: Cell viability assay, CellTiter-Glo (Example 21); type: cell-based, human; conditions: 72 h treatment
Method in brief: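 The CellTiter-Glo luminescent cell viability assay (Promega) was used to test compound effects on EBC-1 cells. Cells were plated at 1000 cells/well on white flat-bottom 96 well plates, treated, then read for luminescence on a microplate reader. Dose-response curves were fitted by four-parameter variable-slope non-linear regression.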

[8] = system: FaDu (pharynx, squamous cell carcinoma) cells; assay: Cell viability assay, CellTiter-Glo (Example 21); type: cell-based, human; conditions: 72 h treatment
Method in brief: as §1

[9] = system: LNCaP (prostate, carcinoma) cells; assay: Cell viability assay, CellTiter-Glo (Example 21); type: cell-based, human; conditions: 72 h
Method in brief: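 Flat-bottomed white 96 well plates received 1500 LNCaP cells per well, a density chosen to suit the cells' size and growth rate. Following compound treatment, viability was measured by CellTiter-Glo® luminescence per the manufacturer's protocol, with signal recorded on a BioTek Synergy 2 reader. GraphPad Prism 8.4.2 generated dose-response curves using a four-parameter, variable-slope non-linear regression model.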

[10] = system: MDA-MB-231 (breast, adenocarcinoma) cells; assay: Cell viability assay, CellTiter-Glo (Example 21); type: cell-based, human; conditions: 72 h treatment
Method in brief: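 Viability of MDA-MB-231 cells was quantified by luminescence using Promega's CellTiter-Glo® kit per manufacturer instructions. Cells, plated at a size- and growth-optimized density of 1500 cells/well in white flat-bottom 96 well plates, were treated and then read on a BioTek Synergy 2 reader; dose-response curves used four-parameter variable-slope non-linear regression in GraphPad Prism 8.4.2.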

[11] = system: MDA-MB-453 (breast, carcinoma) cells; assay: Cell viability assay, CellTiter-Glo (Example 21); type: cell-based, human; conditions: 72 h treatment
Method in brief: as §1

[12] = system: MIA PaCa-2 (pancreas, carcinoma) cells; assay: Cell viability assay, CellTiter-Glo (Example 21); type: cell-based, human; conditions: 72 h treatment
Method in brief: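 Cell viability of MIA PaCa-2 cells was assessed by CellTiter-Glo® luminescence (Promega, Madison, WI, USA). Cells were plated at 1000 cells/well, a density chosen for their size and growth rate, in white flat-bottomed 96 well plates. After treatment, the signal was recorded on a BioTek microplate reader, and dose-response curves were fitted in GraphPad Prism 8.4.2 with a four-parameter variable-slope non-linear regression.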

[13] = system: PC-3 (prostate, adenocarcinoma) cells; assay: Cell viability assay, CellTiter-Glo (Example 21); type: cell-based, human; conditions: 72 h treatment
Method in brief: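 Cancer cell viability was assessed by luminescence using Promega's CellTiter-Glo® kit. PC-3 cells, plated at a density of 1000 cells/well in white flat-bottom 96 well plates, were exposed to test compounds, after which signals were measured on a microplate reader and dose-response curves fitted by four-parameter variable-slope non-linear regression in GraphPad Prism 8.4.2.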

[14] = system: Panc-1 (pancreas, carcinoma) cells; assay: Cell viability assay, CellTiter-Glo (Example 21); type: cell-based, human; conditions: 72 h treatment
Method in brief: as §1

[15] = system: SCC-25 (tongue, squamous cell carcinoma) cells; assay: Cell viability assay, CellTiter-Glo (Example 21); type: cell-based, human; conditions: 72 h treatment
Method in brief: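 Cell viability of SCC-25 cells was assessed by CellTiter-Glo luminescence after compound exposure. Cells were plated at 1000 cells/well, a density chosen for their size and growth rate, on white flat-bottom 96 well plates. Signal was recorded on a microplate reader, and dose-response curves were fitted in GraphPad Prism by four-parameter variable-slope non-linear regression.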

[N-]=[N+]=Nc1cccc(CN2CCC3=C(C2)C(=O)N(Cc2ccc(C(F)(F)F)cc2)C2=NCCN23)c1 [I/111, 7-(3-Azidobenzyl)-4-(4-(trifluoromethyl)benzyl)-2,4,6,7,8,9-hexahydroimidazo[1,2-a]pyrido[3,4-e]pyrimidin-5(1H)-one]
IC50 [1]: 0.01 µM
IC50 [2]: < 0.1 µM
IC50 [3]: < 0.1 µM
Capan-1 (pancreas, adenocarcinoma) cell viability (% of control) ([4]; 3.7 nM): 102.5 ± 4.0 % of control
Capan-1 (pancreas, adenocarcinoma) cell viability (% of control) ([4]; 11.1 nM): 95.1 ± 8.2 % of control
Capan-1 (pancreas, adenocarcinoma) cell viability (% of control) ([4]; 100 nM): 31.7 ± 1.7 % of control
Capan-1 (pancreas, adenocarcinoma) cell viability (% of control) ([4]; 300 nM): 30.8 ± 3.3 % of control
DU 145 cell viability ([5]; 3.7 nM): 93.6 ± 6.9 % of control
DU 145 cell viability ([5]; 11.1 nM): 33.8 ± 5.0 % of control
DU 145 cell viability ([5]; 100 nM): 7.1 ± 2.0 % of control
DU 145 cell viability ([5]; 300 nM): 8.1 ± 1.9 % of control
Detroit 562 (pharynx, carcinoma) cell viability (% of control) ([6]; 3.7 nM): 48.0 ± 21.7 % of control
Detroit 562 (pharynx, carcinoma) cell viability (% of control) ([6]; 11.1 nM): 32.8 ± 3.7 % of control
Detroit 562 (pharynx, carcinoma) cell viability (% of control) ([6]; 100 nM): 26.8 ± 2.8 % of control
Detroit 562 (pharynx, carcinoma) cell viability (% of control) ([6]; 300 nM): 28.8 ± 3.8 % of control
EBC-1 (lung, squamous cell carcinoma) cell viability (% of control) ([7]; 3.7 nM): 94.1 ± 3.0 % of control
EBC-1 (lung, squamous cell carcinoma) cell viability (% of control) ([7]; 11.1 nM): 54.0 ± 6.5 % of control
EBC-1 (lung, squamous cell carcinoma) cell viability (% of control) ([7]; 100 nM): 20.6 ± 0.6 % of control
EBC-1 (lung, squamous cell carcinoma) cell viability (% of control) ([7]; 300 nM): 20.0 ± 0.0 % of control
FaDu (pharynx, squamous cell carcinoma) cell viability (% of control) ([8]; 3.7 nM): 97.7 ± 3.9 % of control
FaDu (pharynx, squamous cell carcinoma) cell viability (% of control) ([8]; 11.1 nM): 66.8 ± 12.0 % of control
FaDu (pharynx, squamous cell carcinoma) cell viability (% of control) ([8]; 100 nM): 21.7 ± 5.4 % of control
FaDu (pharynx, squamous cell carcinoma) cell viability (% of control) ([8]; 300 nM): 22.1 ± 4.8 % of control
LNCaP cell viability ([9]; 3.7 nM): 97.1 ± 2.6 % of control
LNCaP cell viability ([9]; 11.1 nM): 32.4 ± 2.3 % of control
LNCaP cell viability ([9]; 100 nM): 11.8 ± 0.7 % of control
LNCaP cell viability ([9]; 300 nM): 11.7 ± 0.7 % of control
MDA-MB-231 (breast, adenocarcinoma) cell viability (% of control) ([10]; 3.7 nM): 102.7 ± 2.8 % of control
MDA-MB-231 (breast, adenocarcinoma) cell viability (% of control) ([10]; 11.1 nM): 98.5 ± 2.1 % of control
MDA-MB-231 (breast, adenocarcinoma) cell viability (% of control) ([10]; 100 nM): 56.9 ± 2.2 % of control
MDA-MB-231 (breast, adenocarcinoma) cell viability (% of control) ([10]; 300 nM): 52.8 ± 2.7 % of control
MDA-MB-453 (breast, carcinoma) cell viability (% of control) ([11]; 3.7 nM): 107.2 ± 5.9 % of control
MDA-MB-453 (breast, carcinoma) cell viability (% of control) ([11]; 11.1 nM): 45.7 ± 5.0 % of control
MDA-MB-453 (breast, carcinoma) cell viability (% of control) ([11]; 100 nM): 30.3 ± 1.0 % of control
MDA-MB-453 (breast, carcinoma) cell viability (% of control) ([11]; 300 nM): 28.8 ± 0.4 % of control
MIA PaCa-2 (pancreas, carcinoma) cell viability (% of control) ([12]; 3.7 nM): 100.2 ± 8.8 % of control
MIA PaCa-2 (pancreas, carcinoma) cell viability (% of control) ([12]; 11.1 nM): 90.6 ± 19.3 % of control
MIA PaCa-2 (pancreas, carcinoma) cell viability (% of control) ([12]; 100 nM): 16.5 ± 6.7 % of control
MIA PaCa-2 (pancreas, carcinoma) cell viability (% of control) ([12]; 300 nM): 16.2 ± 6.9 % of control
PC-3 (prostate, adenocarcinoma) cell viability (% of control) ([13]; 3.7 nM): 106.8 ± 2.4 % of control
PC-3 (prostate, adenocarcinoma) cell viability (% of control) ([13]; 11.1 nM): 75.5 ± 5.9 % of control
PC-3 (prostate, adenocarcinoma) cell viability (% of control) ([13]; 100 nM): 32.0 ± 3.2 % of control
PC-3 (prostate, adenocarcinoma) cell viability (% of control) ([13]; 300 nM): 31.3 ± 3.0 % of control
Panc-1 (pancreas, carcinoma) cell viability (% of control) ([14]; 3.7 nM): 106.1 ± 7.3 % of control
Panc-1 (pancreas, carcinoma) cell viability (% of control) ([14]; 11.1 nM): 99.6 ± 1.4 % of control
Panc-1 (pancreas, carcinoma) cell viability (% of control) ([14]; 100 nM): 50.1 ± 2.0 % of control
Panc-1 (pancreas, carcinoma) cell viability (% of control) ([14]; 300 nM): 49.7 ± 1.2 % of control
SCC-25 (tongue, squamous cell carcinoma) cell viability (% of control) ([15]; 3.7 nM): 98.3 ± 4.0 % of control
SCC-25 (tongue, squamous cell carcinoma) cell viability (% of control) ([15]; 11.1 nM): 79.0 ± 11.0 % of control
SCC-25 (tongue, squamous cell carcinoma) cell viability (% of control) ([15]; 100 nM): 32.5 ± 1.2 % of control
SCC-25 (tongue, squamous cell carcinoma) cell viability (% of control) ([15]; 300 nM): 36.4 ± 0.9 % of control
